Common to all, as to set-up: species or system human
In one experiment the test system is R1.3 (HCT116-RDAC). Briefly: MTT based cell survival assay, DAC resistant HCT116 clone R1.3. Here is the method: (§1) The DAC resistant HCT116 cell lines were developed using two methods.
(§2) The method is primarily based on reduction of yellow colored tetrazolium salt, 3-(4,5-dimethylthiazol-2-yl)-2,5-diphenyltetrazolium bromide (MTT) to insoluble purple colored formazan crystals by NAD(P)H-dependent oxidoreductase enzymes in mitochondria of the viable cell.
(§3) Cells in 80 μL of medium were plated in each of the experimental and the control wells, followed by addition of 20 μL medium with five-fold drug concentration to experimental wells. The wells with medium alone were included alongside as blank for absorbance readings. After 72 h of drug treatment, 10 μL MTT (Sigma-Aldrich) prepared in 1×PBS (5 mg/mL) was added to all wells including blank and control, and incubated until the purple formazan crystals were visible after which 100 μL of detergent (10% SDS, pH: 5.5) was added and the plates were incubated overnight to solubilize the formazan and the cellular material.
(§4) Cross resistance was determined as the fold increase, whereas, the sensitivity was determined as the fold decrease in the IC50 of the drugs for the resistant cell lines compared to their genetically identical drug sensitive counterpart.

The next experiment relates to R2.2 (HCT116-RDAC). In words: MTT based cell survival assay, DAC resistant HCT116 clone R2.2. Here is the method:
as §1, §2, §3, §4

Another experiment relates to R1.4 (HCT116-RDAC). In words: MTT based cell survival assay, DAC resistant HCT116 clone R1.4. The protocol: as §1, §2, §3, §4
The test system of the next experiment is HCT116. Briefly: MTT based cell survival assay, parental HCT116. The settings on record: Homo sapiens, HCT-116; HCT116 parental, MTT, 72 h drug treatment; read-out: Mean IC50. The protocol: To study the mechanism of resistance towards DNA methylation inhibitor, 2′-deoxy-5-azacytidine, we used the human colorectal cancer cell line (HCT116), human promyelocytic leukemia cells (HL-60), and human breast adenocarcinoma cell line (MCF-7) obtained from American Type Culture Collection (Manassas, Va.). The cell lines were cultured in complete growth media (Sigma-Aldrich, St. Louis, Mo.), supplemented with fetal bovine serum (FBS, PAN-Biotech GmbH, Aidenbach, Germany), 100 U/mL penicillin (Biotika, Slovenská L'upča, Slovak Republic) and 50 μg/mL streptomycin (Sigma-Aldrich), and the cultures were maintained at 37° C. and 5% CO2, in a humidified incubator. The cell line, HCT116 was grown in McCoy's 5 A medium supplemented with 10% FBS and 3 mM L-glutamine (Sigma-Aldrich), HL-60 was grown in Iscove's Modified Dulbecco's Medium with 20% FBS, and MCF-7 was grown in RPMI-1640 medium with 10% FBS.
The method is primarily based on reduction of yellow colored tetrazolium salt, 3-(4,5-dimethylthiazol-2-yl)-2,5-diphenyltetrazolium bromide (MTT) to insoluble purple colored formazan crystals by NAD(P)H-dependent oxidoreductase enzymes in mitochondria of the viable cell. The intensity of the purple color produced on solubilization of the formazan crystals is directly proportional to the number of viable cells (Meerloo J. V. et al., Methods in Molecular Biology 2011; 731, 237-45).
as §3, with “To determine the IC50 of the epigenetic drugs (Tocris Bioscience, Bristol, United Kingdom), four independent experiments were performed using triplicate wells of 96 well plates. Cells” for “Cells”, “[…],” for “After 72 h of drug treatment,”
as §4

In another experiment the test system is R2.1 (HCT116-RDAC). Briefly: MTT based cell survival assay, DAC resistant HCT116 clone R2.1. Here is the method: as §1, §2, §3, §4
The next experiment concerns R1.1 (HCT116-RDAC). Briefly: MTT based cell survival assay, DAC resistant HCT116 clone R1.1. The protocol:
as §1, §2, §3, §4

In the next experiment the test system is R1.2 (HCT116-RDAC). Briefly: MTT based cell survival assay, DAC resistant HCT116 clone R1.2. Here is the method:
as §1, §2, §3, §4

Some results are limits rather than exact numbers.

As usually defined, the IC50 is the concentration that inhibits the measured activity by half.

For `O=c1ncccn1[C@@H]1O[C@H](CO)[C@@H](O)[C@H]1O` [Zebularine], the concentration for half-maximal inhibition (IC50) in the experiment on R1.3 (HCT116-RDAC) (Homo sapiens, HCT-116, R1.3, MTT, 72 h drug treatment, read-out: Mean IC50) was no less than 100 µM; in the experiment on R2.2 (HCT116-RDAC) (Homo sapiens, HCT-116, R2.2, MTT, 72 h drug treatment, read-out: Mean IC50), no less than 100 µM; in the experiment on R1.4 (HCT116-RDAC) (Homo sapiens, HCT-116, R1.4, MTT, 72 h drug treatment, read-out: Mean IC50) it was no less than 100 µM; with HCT116, 84.2 µM; in the experiment on R2.1 (HCT116-RDAC) (Homo sapiens, HCT-116, R2.1, MTT, 72 h drug treatment), no less than 100 µM; in the experiment on R1.1 (HCT116-RDAC) (Homo sapiens, HCT-116, R1.1, MTT, 72 h drug treatment, read-out: Mean IC50) it was no less than 100 µM. The IC50 with R1.2 (HCT116-RDAC) (Homo sapiens, HCT-116, R1.2, MTT, 72 h drug treatment, read-out: Mean IC50) is no less than 100 µM. Moreover, the “fold change (resistance index)” value in the experiment on R1.3 (HCT116-RDAC) (IC50 R1.3 / IC50 HCT116), in the experiment on R2.2 (HCT116-RDAC) (IC50 R2.2 / IC50 HCT116), with R1.4 (HCT116-RDAC) (IC50 R1.4 / IC50 HCT116), in the experiment with R2.1 (HCT116-RDAC) (IC50 R2.1 / IC50 HCT116), in the experiment with R1.1 (HCT116-RDAC) (IC50 R1.1 / IC50 HCT116) and with R1.2 (HCT116-RDAC) (IC50 R1.2 / IC50 HCT116) was “(1.19) fold” in each case.

These data come from patent US20180251847A1, “METHOD OF PREDICTING THE TUMOR RESPONSE TO DNA METHYLATION INHIBITORS AND ALTERNATIVE THERAPEUTIC REGIMEN FOR OVERCOMING RESISTANCE” (PALACKY UNIVERSITY, OLOMOUC, priority 2014, published 2018).
